{
  "source": "patent US20100247659A1",
  "about": "“PHENYLPHTHALIMIDE ANALOGS FOR TREATING DIABETIC MACULAR EDEMA” (Charlesson, LLC, priority 2007, published 2010)",
  "key": {"[1]": {"system": "HUVEC", "assay": "MTT cell proliferation assay, HUVEC", "type": "cell-based", "conditions": "Homo sapiens, 72 h, treated 3 days, read-out: IC50, inhibition of proliferation of HUVEC", "description": "(§1) Cell culture: All cell culture media and supplements were purchased from Cellgro unless otherwise indicated. Human Umbilical Vein Endothelial Cells (HUVEC) were obtained from American Type Culture Collection and grown in the EBM-MV2 medium (Clonetics). Bovine Retinal Endothelial Cells (BREC) and pericytes were isolated according to a modified method as described previously (Wong, et al. Investig. Opthalmol. Vis. Sci. 1987, 28: 1767-1775). Twelve bovine eyes were obtained from a local slaughterhouse (Country Home Meats). The retinas were removed and washed four times in DMEM. Subsequently retinas were homogenized and centrifuged at 400×g for 10 min. The resultant pellet was resuspended in an isolation medium (DMEM with 100 IU/ml penicillin, 100 μg/ml streptomycin and 250 ng/ml amphotericin). Microvessels were trapped on an 85 μm nylon mesh (Locker Wire Weavers LTD) and transferred to a petri dish (Falcon) containing 10 ml of an enzyme cocktail which consisted of 600 μg/ml DNase I (Sigma), 165 μg/ml collagenase (Sigma) and 700 μg/ml Pronase E (EMD) and were incubated at 37° C. for 20 min. The resultant vessel fragments were trapped on a 53 μm nylon mesh (Locker Wire Weavers LTD), washed with the isolation medium and centrifuged at 400×g for 5 min. For selective culture of pericytes, the resultant pellet was resuspended in 10 ml of the pericyte growth medium and transferred into 75-cm^2 plastic tissue culture flasks (BD Biosciences). For selective culture of BRCECs, the resultant pellet was resuspended in 10 ml of the BRCEC growth medium and transferred into 75-cm^2 collagen-coated plastic tissue culture flasks (BD Biosciences). The BRCEC growth medium consisted of DMEM supplemented with 10% human serum, 1% glutamine, 1 mg/ml insulin, 550 μg/ml transferring, 670 ng/ml selenium, 100 IU/ml penicillin, 100 μg/ml streptomycin, 250 ng/ml amphotericin, 90 μg/ml heparin (Sigma) and 15 μg/ml endothelial cell growth supplement (Upstate). Cells were cultured at 37° C. and 5% CO2 with regular medium change every 3 days. Confluence cultures were passaged by detaching the cells with 0.25% trypsin and plated at a split 1:3. […] At passage 2, BRCECs and pericytes were stored in a liquid nitrogen tank for future use.\nMTT assay: Cells were seeded at a density of 5×10^4 cells per well in 400 μl of growth medium in triplicate in 24-well plates (Nalge Nunc) or gelatin-coated 24-well plates. Twenty-four hours after seeding, the growth medium was replaced by a medium containing 1% FBS, with or without different concentrations of thalidomide or phenylphthalimide analogs. After the cells were treated for 48-72 h, MTT was added to a final concentration of 0.5 mg of medium per ml and incubated for 4 h at 37° C. in 5% CO2. An equal volume of solubilizer buffer is then added, following the protocol recommended by the manufacturer (Roche Molecular Biochemicals), the cells will be incubated overnight at 37° C. in 5% CO2. The absorbance of the formazen product was measured at a wavelength of 570 nm, with 750 nm as the (subtracted) reference wavelength.\nPrimary endothelial cells (HUVEC and BRCEC) and pericytes were treated with various concentrations of the compounds for 3 days. Viable cells were quantified using MTT assay and IC50 of each compound was calculated (mean±SD, n=3, FIG. 1). The IC50 values represent the means and SE of 3 independent experiments."}, "[2]": {"system": "BRCEC", "assay": "MTT cell proliferation assay, BRCEC", "type": "cell-based, bovine", "conditions": "Bos taurus, 72 h, treated 3 days, read-out: IC50, inhibition of proliferation of BRCEC", "description": "as §1\nMTT assay: Cells were seeded at a density of 5×10^4 cells per well in 400 μl of growth medium in triplicate in 24-well plates (Nalge Nunc) or gelatin-coated 24-well plates. […] The absorbance of the formazen product was measured at a wavelength of 570 nm, with 750 nm as the (subtracted) reference wavelength.\nPrimary endothelial cells (HUVEC and BRCEC) and pericytes were treated with various concentrations of the compounds for 3 days. Viable cells were quantified using MTT assay and IC50 of each compound was calculated (mean±SD, n=3, FIG. 1). […]"}, "[3]": {"system": "HUVEC", "assay": "Endothelial cell migration (invasion) assay", "type": "cell-based", "conditions": "Homo sapiens, VEGF 4 ng/ml, invasion through Matrigel, read-out: IC50, inhibition of HUVEC migration", "experimental": "Cells were allowed to invade for 22±1 hours. Cells were labeled post invasion with Calcein AM (4 μg/ml) and measured by detecting the fluorescence of cells that invaded through the BD Matrigel™ Matrix with an Applied Biosystems CytoFluor® 4000 plate reader at 485 nm excitation and 530 nm emission.\nIn this assay system, human endothelial cells are allowed to invade and are then labeled with fluorescent dye Calcein AM before quantification on a fluorometer.\nIn FIG. 2B, cells were seeded at 5×10^4/insert in EBM-2 containing 0.1% BSA in multi-well inserts. The assembled assays were allowed to proceed for 6 hours. The results are expressed as percent inhibition of migration as compared to control (no inhibitor). Data represents the average of 3 experiments, each run in triplicate. The bars represent mean±SD."}, "[4]": {"system": "CAM blood vessel formation induced by VEGF/bFGF", "assay": "Chicken chorioallantoic membrane (CAM) assay", "type": "in vivo", "conditions": "200 ng VEGF-165/bFGF, 48 hr", "method": "Chicken chorioallantoic membrane (CAM) assay: The fertile Leghorn chicken eggs were incubated in a humidified environment at 37.5° C. for 10 days. […] Anti-angiogenic compounds were then added 8 hr after the VEGF/bFGF at saturation to the same microbial testing disk, and the embryos were incubated for an additional 40 h. CAMs were then removed, quickly fixed with 4% paraformaldehyde in PBS, placed onto Petri dishes, and digitized images taken at 7.5× using a Nikon dissecting microscope and Scion Imaging system. A 1×1-cm grid was then added to the digital CAM images and the average number of vessels within 5-7 grids counted as a measure of vascularity.\nCAM assay was used for in vivo anti-angiogenic studies. The fertile leghorn chicken eggs were allowed to incubate in a humidified environment at 37.5° C. for 10 days. […] Anti-angiogenic compounds were then added 8 hours after the VEGF/bFGF at saturation to the same microbial testing disk and embryos allowed to incubate for an additional 40 hours. After 48 hr, CAMs were removed, quickly fixed with 4% paraformaldehyde in PBS, placed onto Petri dishes, and digitized images taken at 7.5× using a Nikon dissecting microscope and Scion Imaging system. A 1×1-cm grid was then added to the digital CAM images and the average number of vessels within 5-7 grids counted as a measure of vascularity.\nFIG. 14 is a table comparing the effect of Compound 4 on blood vessel formation. […] Data represent mean±SD of 8-16 samples from 2-3 separate experiments."}, "[5]": {"system": "OIR rats", "assay": "Retinal vascular leakage in OIR rats, intravitreal injection", "type": "in vivo, rat", "conditions": "for retinal vascular leakage as % of contralateral vehicle-injected eyes: intravitreal 5 μl 0.8 mM at P14, measured P16; for reduction of retinal vascular leakage vs vehicle control: single intravitreal 1.0 μg/eye (5 μl 0.8 mM) at P14, measured P16", "text": "Induction of oxygen-induced retinopathy (OIR): Induction of OIR followed the procedure as described by Smith et al (Smith, et al. Invest. Opthalmol. Vis. Sci. 1994, 35: 101-111) with some modifications. Briefly, Newborn Brown Norway (BN) rats (Charles River Laboratories) at postnatal day 7 (P7) were exposed to hyperoxia (75% O2) for 5 days (P7-12) and then returned to normoxia (room air) to induce retinopathy.\n(§2) Intravitreal injection of compounds: Thalidomide and the phenylphthalimide analogs Compounds 1, 2 and Compound 4 were dissolved in vehicle (BN rat serum) and sterilized by filtration. OIR and STZ-diabetic BN rats received an intravitreal injection of 0.5-2.0 μg/eye of (5 μl/eye, 0.1-0.4 mg/ml in BN rat serum) of thalidomide, Compounds 1, 2 or Compound 4 into the right eye and the equal volume of the BN rat serum into the left eye.\nMeasurement of vascular permeability: Vascular permeability was quantified by measuring leakage of FITC-albumin or Evans blue dye-albumin complex from the blood vessels into the retina as described (Xu, et al. Invest. Opthalmol. Vis. Sci. 2001, 42:789-794), with some modifications. Briefly, FITC-albumin was injected through the femoral vein and circulated for 2 h. The rats were then perfused via the left ventricle. The retinas were carefully dissected and homogenized. The concentrations of FITC-albumin were measured in a fluorometer and normalized by the total protein concentration in each retina and by plasma concentration of FITC-albumin.\nTo induce OIR, BN rats at postnatal day 7 (P7) were exposed to hyperoxia (75% O2) for 5 days (P7-P12) and then returned to normoxia. Normal control rats were kept in room air. At P14, the OIR BN rats received an intravitreal injection of 5 μl (0.8 mM in BN rat serum)/eye of thalidomide, Compound 1, Compound 2, or Compound 4 into the right eye and same volume of the BN rat serum into the left eye. Retinal vascular leakage was measured using FITC-labeled albumin as tracer. Normal non-OIR BN rats (n=6) served as baseline at P16.\nTo determine if the effect of Compound 4 on retinal vascular leakage was dose-dependent, the OIR rats at P14 received a single injection of Compound 4 with doses of 0.5, 0.75 and 1.0 μg/eye (5 μl of 0.10, 0.15 and 0.20 mg/ml).\nIn FIG. 7A, OIR rats received an intravitreal injection of 5 μl (0.8 mM in BN rat serum)/eye of thalidomide, Compounds 1, 2, or 4 in the right eye and the same volume of the vehicle in the left eye at P14. Vascular leakage was measured using the FITC-labeled albumin leakage method at P16 and expressed as fd/pr of protein in the retina (mean±SD, n=6). Each of the experimental group was compared with contralateral eye by Student's t test. Retinal vascular leakage in normal non-OIR rats at age of P16 were used as baseline at P16. In FIG. 7B, vascular leakage in the compound-injected eyes was expressed as a percentage of average vascular leakage in the vehicle-injected contralateral eyes. For the control, the average vascular leakage in vehicle-treated retinas was used as 100%. […] In FIGS. 7C and 7D, OIR rats received an intravitreal injection of Compound 4 or thalidomide with doses as indicated at P14. Permeability was measured at P16 and expressed as fd/pr of protein in the retina (mean±SD, n=6). Each of the experimental group was compared with the vehicle control by the paired Student's t test. “Normal” is represented as the permeability in normal rats at P16."}, "[6]": {"system": "STZ-diabetic rats", "assay": "Retinal vascular leakage in STZ-diabetic rats, intravitreal injection", "type": "in vivo, rat", "conditions": "for reduction of retinal vascular leakage vs vehicle control: single intravitreal 1.0 μg/eye (5 μl 0.8 mM), 48 h; for reduction of retinal vascular permeability: two days", "experimental": "Induction of diabetes by streptozotocin (STZ): BN rats (8 weeks of age) were given a single intraperitoneal injection of fresh made streptozotocin (STZ) (Sigma, 50 mg/kg in 10 mM of citrate buffer, pH 4.5) following an overnight fasting. Control rats received an injection of citrate buffer alone. Blood glucose levels were checked at 24 hours following the last STZ injection and once a week thereafter, and only the animals with glucose levels higher than 350 mg/dl were considered diabetic. Rats with hyperglycemia for 2 weeks were used for these experiments.\nas §2\nEvans blue dye (Sigma) was dissolved in 0.9% saline (30 mg/ml), sonicated for 5 min and filtered through a 0.45-μm filter (Millipore). The rats were then anesthetized, and Evans blue (30 mg/kg) was injected over 10 s through the femoral vein using a glass capillary under microscopic inspection. Evans blue non-covalently binds to plasma albumin in the blood stream. Immediately after Evans blue infusion, the rats turned visibly blue, confirming their uptake and distribution of the dye. The rats were kept on a warm pad for 2 h to ensure the complete circulation of the dye. Then the chest cavity was opened, and the rats were perfused via the left ventricle with 1% paraformaldehyde in citrate buffer (pH 4.2) which was pre-warmed to 37° C. to prevent vasoconstriction. The perfusion lasted 10 min under the physiological pressure of 120 mmHg, in order to clear the dye from the vessel. Immediately after perfusion, the eyes were enucleated and the retinas were carefully dissected under an operating microscope. Evans blue dye was extracted by incubating each sample in 150 μl of formamide for 18 h at 70° C. The extract was centrifuged (Beckman) at 70,000 rpm (Rotor type: TLA 100.3) for 20 min at 4° C. Absorbance was measured using 100 μl of the supernatant at 620 nm by using Spectrophotometer DU800 (Beckman). The concentration of Evans blue in the extract was calculated from a standard curve of Evans blue in formamide and normalized by the total protein concentration in each sample. Results were expressed in mg of Evans blue per mg of total protein content.\nDiabetes was induced by injection of STZ (50 mg/kg, i.v.) into adult BN rats after overnight fasting. Blood glucose levels were monitored at the second day after the injection and once a week thereafter. Rats with glucose levels above 350 mg/dl were considered as diabetic and used for the study. thalidomide, Compounds 1, 2 and 4 were separately injected into the vitreous space (5 μl, 0.8 mM in BN rat serum) of the right eye of STZ-diabetic rats 2 wks after the induction of diabetes. At 48 h after the injection, retinal vascular leakage was measured using the Evans blue-albumin leakage method.\nTo determine the dose-response relationship of the effect of Compound 4 and thalidomide, the STZ-diabetic rats received an intravitreal injection of Compound 4 and thalidomide with doses of 0.5, 0.75 and 1.0 μg/eye (5 μl/eye of 0.10, 0.15 and 0.20 mg/ml), respectively."}, "[7]": {"system": "HUVECs", "assay": "Tube formation assay on matrigel", "type": "cell-based, human", "conditions": "5 μM, 16 h", "method": "Eight-well slide chambers were coated with matrigel and at 37° C. and 5% CO2 for 30 min. HUVECs were then seeded at 30,000 cells/well in EGM-II containing either vehicle (0.5% DMSO), 5 μM of Compound 4 or thalidomide and incubated at 37° C. and 5% CO2 for 16 h. After incubation, slides were washed in PBS, fixed in 100% methanol for 10 s, and stained with DiffQuick solution II for 2 min. To analyze tube formation, each well was digitally photographed using a ×2.5 objective.\nRepresentative images were captured after incubation of vehicle, thalidomide and Compound 4 for 16 h."}},
  "data": [
    {"compound": "CC(C)c1cccc(C(C)C)c1N1C(=O)c2ccc(N)cc2C1=O", "note": "[Compound 4]", "values": [
      {"measurement": "IC50", "setting": "[1]", "result": 2, "unit": "µM"},
      {"measurement": "IC50", "setting": "[2]", "result": 1.83, "unit": "µM"},
      {"measurement": "IC50", "setting": "[3]", "result": "< 1", "unit": "µM"},
      {"measurement": "ED50, dose reducing blood vessel number to 50% of VEGF/bFGF alone group", "setting": "[4]", "result": 6.5, "unit": "μg/embryo"},
      {"measurement": "retinal vascular leakage as % of contralateral vehicle-injected eyes", "setting": "[5]", "result": 61, "unit": "%"},
      {"measurement": "reduction of retinal vascular leakage vs vehicle control", "setting": "[5]", "result": 40, "unit": "%"},
      {"measurement": "reduction of retinal vascular leakage vs vehicle control", "setting": "[6]", "result": "~100", "unit": "%"}
    ]},
    {"compound": "O=C1CCC(N2C(=O)c3ccccc3C2=O)C(=O)N1", "note": "(stereo not shown) [thalidomide]", "values": [
      {"measurement": "IC50", "setting": "[1]", "result": "> 100", "unit": "µM"},
      {"measurement": "IC50", "setting": "[2]", "result": "> 32", "unit": "µM"},
      {"measurement": "IC50", "setting": "[3]", "result": "> 100", "unit": "µM"},
      {"measurement": "inhibition of tube formation", "setting": "[7]", "result": "did not show any inhibitory activity"},
      {"measurement": "ED50, dose reducing blood vessel number to 50% of VEGF/bFGF alone group", "setting": "[4]", "result": "> 100", "unit": "μg/embryo"},
      {"measurement": "reduction of retinal vascular leakage", "setting": "[5]; dose of 0.5 μg/eye", "result": "not at the dose of 0.5 μg/eye"},
      {"measurement": "reduction of retinal vascular leakage", "setting": "[5]; doses of 0.75 and 1.0 μg/eye", "result": "significantly reduced vascular leakage"},
      {"measurement": "retinal vascular leakage as % of contralateral vehicle-injected eyes", "setting": "[5]", "result": 82, "unit": "%"},
      {"measurement": "reduction of retinal vascular leakage vs vehicle control", "setting": "[5]", "result": 18, "unit": "%"},
      {"measurement": "reduction of retinal vascular permeability", "setting": "[6]; dose of 0.5 μg/eye", "result": "not at 0.5 μg/eye"},
      {"measurement": "reduction of retinal vascular permeability", "setting": "[6]; doses of 0.75 and 1.0 μg/eye", "result": "showed an inhibitory effect"},
      {"measurement": "reduction of retinal vascular leakage vs vehicle control", "setting": "[6]", "result": 77, "unit": "%"}
    ]}
  ]
}
